Test results published in patent publication US20230355649A1, “FORMULATIONS OF ANTI-VIRAL COMPOUNDS” (priority 2020, published 2023).
Values after ≈ are worked out from the molar mass of the structure shown. Like-named read-outs stand apart in the source and are kept apart here.

Experiments:
physchem [1] = format: physicochemical
From the text: The solubility of Remdesivir was screened in a range of different acids to test the effect of pH and acidity on Remdesivir solubility.

[2] = Remdesivir solubility in co-solvents; format: physicochemical
physchem [3] = format: physicochemical; conditions: aqueous with cosolvent or surfactant or cyclodextrin, read-out: Remdesivir Solubility
[4] = format: physicochemical
Method: In order to determine the stability of the prodrug Remdesivir at different pH, the stability of prodrug Remdesivir was tested over time at physiologically relevant pH of gastrointestinal media. The degradation of Remdesivir was determined by measuring the amount of unchanged Remdesivir using a suitable high pressure liquid chromatographic (HPLC) method and comparing the results against a pure reference sample of Remdesivir.

[5] = Dissolution and solubility study, Type II dissolution apparatus; format: physicochemical; conditions: drug substance powder in hard-gelatin capsule without excipients; 15 mg in 300 mL 0.4% Tween 80 in water, 100 rpm
Method: The solubility and/or dissolution of Remdesivir over time was determined for various pharmaceutical compositions using a Type II dissolution apparatus. The dissolution of the liquid formulation filled into hard-gelatin capsule and “as-is”, i.e. without being filled into the capsule shell were compared to the release of the non-formulated powder drug substance filled into the capsule, as well as the latter in combination with the solubilizing complexing agent, SBEβCD. The dissolution profiles were compared to that of acetaminophen drug substance filled into a hard-gelatin capsule. Acetaminophen has over 80% bioavailability in practice. […] At appropriate time intervals, about 1 mL aliquots of the dissolution media were withdrawn, filtered and tested using a high-pressure chromatographic assay method for Remdesivir. The area under the peak for the drug at the standard elution time was then compared against that of an external reference standard of Remdesivir to determine the concentration of dissolved Remdesivir at any given time.
Specifically, the Example formulation 1 (ES040-36) comprising Remdesivir was tested both as a solution added directly into the dissolution medium without being filled into a capsule shell to represent the release from an oral solution and also as filled into a hard-gelatin capsule. […]

human hepatocytes = experiment: In vitro metabolism study of Remdesivir with human hepatocytes; format: in vitro ADME
Method: The Relative abundance (%) of metabolites post-incubation of Remdesivir (10 μM) was determined after culture with human hepatocytes (1.3 million cells/mL).
Samples were analysed by ultra-high performance liquid chromatography tandem mass spectrometry (UHPLC-MS/MS) with a quadrople time of flight mass spectrometer, for acquisition of high-resolution accurate mass data, with electrospray ionization incorporating in-line UV detection with a photodiode array detector.

[6] = in vivo, iv; cited from earlier work
[7] = in vivo, cited from earlier work
[8] = parameters: species or system Dog (Canis familiaris)/Beagle; conditions: male, beagle, dog, in vivo, 20 mg/kg
Method: An in vivo dog study in beagles was carried out to determine the pharmacokinetic (PK) profile of Remdesivir following 1) a single intravenous (IV) infusion of a control formulation and 2) an oral (PO) dose of an Example pharmaceutical composition ES040-72 according to the present invention.
For both IV or oral (PO) administered doses, plasma samples were collected over a period of 48 hours. Further details of the plasma collection are detailed in Table 13.

[9] = parameters: species or system Dog (Canis familiaris)/Beagle; conditions: dog, in vivo
From the text: For both IV or oral (PO) administered doses, blood samples were collected to determine the presence of analytes in PBMCs. Further details are detailed in Table 14. [table]

[10] = test system: SARS-CoV-2 infected cell lines; conditions: shown in the literature; cited from earlier work
[11] = not told; cited from earlier work

CCC(CC)COC(=O)[C@H](C)N[P@](=O)(OC[C@H]1O[C@@](C#N)(c2ccc3c(N)ncnn23)[C@H](O)[C@@H]1O)Oc1ccccc1 [Remdesivir]
solubility (physchem [1]; pH 0.5): 1690 µg/mL (≈ 2800 µM) | solubility (physchem [1]; pH 0.5, aqueous buffer, Solubility): 950 µg/mL (≈ 1580 µM) | solubility (physchem [1]; pH 0.98, simulated gastric fluid, Solubility): 2490 µg/mL (≈ 4130 µM) | solubility (physchem [1]; pH 1, aqueous buffer, Solubility): 640 µg/mL (≈ 1060 µM) | solubility (physchem [1]; pH 1.38, simulated gastric fluid, Solubility): 980 µg/mL (≈ 1630 µM) | solubility (physchem [1]; pH 1.89, simulated gastric fluid, Solubility): 340 µg/mL (≈ 564 µM) | solubility (physchem [1]; pH 2.91, aqueous buffer, Solubility): 5 µg/mL (≈ 8.3 µM) | solubility (physchem [1]; pH 3.5, aqueous buffer, Solubility): 10 µg/mL (≈ 16.6 µM) | solubility (physchem [1]; pH 4.74, aqueous buffer, Solubility): 1 µg/mL (≈ 1.66 µM) | solubility (physchem [1]; pH 6.18, aqueous buffer, Solubility): 0.9 µg/mL (≈ 1.49 µM) | solubility (physchem [1]; pH 6.72): 0 µg/mL | solubility ([2]; oil or lipid, Solubility): 15900 µg/mL (≈ 26400 µM) | solubility ([2]; organic solvent or mixture, solvent Span 80, read-out: Solubility): 300 µg/mL (≈ 498 µM) | solubility (physchem [3]; Kolliphor EL (Polyoxyl 35 Castor Oil, Cremophor) 0.10 % w/w in water): 20 µg/mL (≈ 33.2 µM) | solubility (physchem [3]; Poloxamer P407 0.07 % w/w in water): 6 µg/mL (≈ 9.96 µM) | solubility (physchem [3]; TWEEN 20 (Polysorbate 20) 0.16 % w/w in water): 16 µg/mL (≈ 26.6 µM) | solubility (physchem [3]; TWEEN 80 (Polysorbate 80) 0.30 % w/w in water): 33 µg/mL (≈ 54.8 µM) | stability / degradation of Remdesivir in solution [4]: acceptable stability and minimal degradation | dissolution of Remdesivir [5]: very slow dissolution | Relative abundance of analytes post-incubation with Remdesivir (human hepatocytes; human, 2 h, 10 μM): 4.8% | Relative abundance of analytes post-incubation with Remdesivir (human hepatocytes; human, 6 h, 10 μM): 0.1% | Relative abundance of analytes post-incubation with Remdesivir (human hepatocytes; human, 24 h, 10 μM): 0.7% | plasma concentration relative to its own EC50 [6]: rapidly declines to well below its own EC50

C[C@H](NP(=O)(O)OC[C@H]1O[C@@](C#N)(c2ccc3c(N)ncnn23)[C@H](O)[C@@H]1O)C(=O)O [GS-704277]
Relative abundance of analytes post-incubation with Remdesivir (human hepatocytes; 2 h, Remdesivir 10 μM, human hepatocytes 1.3 million cells/mL): 0.0% | Relative abundance of analytes post-incubation with Remdesivir (human hepatocytes; 6 h, Remdesivir 10 μM, human hepatocytes 1.3 million cells/mL): 2.4% | Relative abundance of analytes post-incubation with Remdesivir (human hepatocytes; 24 h, Remdesivir 10 μM, human hepatocytes 1.3 million cells/mL): 2.2%

CC(=O)Nc1ccc(O)cc1 [Acetaminophen, acetaminophen]
bioavailability [7]: over 80%

N#C[C@@]1(c2ccc3c(N)ncnn23)O[C@H](CO)[C@@H](O)[C@H]1O [GS-441524]
AUCinf ([8]; iv): 22000 ± 1950 ng·h/mL | AUClast ([8]; iv): 19800 ± 2510 ng·h/mL | AUCinf ([8]; po): 21700 ± 2170 ng·h/mL | AUClast ([8]; po): 21500 ± 2100 ng·h/mL | detection in PBMC cells [9]: detected | in vitro activity against SARS-CoV-2 infected cell lines [10]: considerable in vitro activity | oral bioavailability ([7]; po): poor oral bioavailability | permeability through the intestinal membrane [11]: poor permeability
